target: T1, hDGAT1 (Homo sapiens, UniProt O75907); experiment: In-vitro DGAT1 assay (14C oleoyl CoA, hDGAT1 microsomes from Sf9 cells); conditions: at 1 μM
T1 sequence (O75907 1-488): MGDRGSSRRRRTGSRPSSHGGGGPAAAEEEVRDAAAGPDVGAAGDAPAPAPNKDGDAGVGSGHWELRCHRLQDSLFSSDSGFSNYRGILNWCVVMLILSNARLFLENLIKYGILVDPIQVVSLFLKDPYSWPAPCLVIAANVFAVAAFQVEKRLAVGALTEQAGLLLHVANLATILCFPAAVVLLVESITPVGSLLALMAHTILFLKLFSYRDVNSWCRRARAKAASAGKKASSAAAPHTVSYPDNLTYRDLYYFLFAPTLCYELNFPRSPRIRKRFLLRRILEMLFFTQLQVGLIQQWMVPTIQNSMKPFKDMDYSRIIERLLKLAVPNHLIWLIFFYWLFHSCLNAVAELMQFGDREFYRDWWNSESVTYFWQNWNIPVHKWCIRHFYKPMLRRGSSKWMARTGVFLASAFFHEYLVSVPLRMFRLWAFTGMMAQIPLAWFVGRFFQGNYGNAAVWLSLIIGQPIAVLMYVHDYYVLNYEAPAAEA

% Inhibition of hDGAT1	Structure (SMILES)
+ (10-50% Inhibition)	O=C(Nc1ccc(-c2ccc3c(c2)C(=O)N([C@H]2CC[C@H](C(=O)O)CC2)C3)cc1)c1ccc(C(F)(F)F)cc1 [Example 563, (1r,4r)-4-(1-Oxo-6-(4-(4-(trifluoromethyl)benzamido)phenyl)isoindolin-2-yl)cyclohexanecarboxylic acid]
++ (>50% Inhibition)	O=C(Nc1ccc(-c2ccc3c(c2)C(=O)N([C@@H]2CCC[C@@H]2C(=O)O)C3)cc1)c1ccc(C(F)(F)F)cc1 [Example 598, (1S,2R)-2-(1-Oxo-6-(4-(4-(trifluoromethyl)benzamido)phenyl)isoindolin-2-yl)cyclopentanebcarboxylic acid]

The remaining lines, values behind:

Structure (SMILES)	% Inhibition of hDGAT1
Cc1ccc(NC(=O)Nc2ccc(-c3ccc4c(c3)C(=O)N([C@H](C(=O)O)C(C)C)C4)cc2)cc1 [Example 24]	+ (10-50% Inhibition)
CC(C)[C@@H](C(=O)O)N1Cc2ccc(-c3ccc(NC(=O)c4ccc(-c5ccccc5)cc4)c(F)c3)cc2C1=O [Example 448, (S)-2-(6-(4-Biphenyl-4-ylcarboxamido-3-fluorophenyl)-1-oxoisoindolin-2-yl)-3-methylbutanoic acid]	++ (>50% Inhibition)

same assay, conditions: read-out: % Inhibition of hDGAT1

inhibition at 1 µM [%]	Structure (SMILES)
10 to 50	CCCCCc1ccc(C(=O)Nc2ccc(-c3ccc4c(c3)C(=O)N([C@H](C(=O)O)C(C)C)C4)c(C(F)(F)F)c2)cc1 [Example 430, (S)-3-Methyl-2-(1-oxo-6-(4-(4-pentylbenzamido)-2-(trifluoromethyl)phenyl)isoindolin-2-yl)butanoic acid]
10 to 50	CC(C)(C(=O)O)N1Cc2ccc(-c3ccc(NC(=O)c4ccc(OC(F)(F)F)cc4)cc3)cc2C1=O [Example 523, 2-Methyl-2-(1-oxo-6-(4-(4-(trifluoromethoxy)benzamido)phenyl)isoindolin-2-yl)propanoic acid]
> 50	CC(C)[C@@H](C(=O)O)N1Cc2ccc(-c3ccc(NC(=O)c4ncc(-c5ccccc5)o4)cn3)cc2C1=O [Example 635, (S)-3-Methyl-2-(1-oxo-6-(5-(5-phenyloxazole-2-carboxamido)pyridin-2-yl)isoindolin-2-yl)butanoic acid]
> 50	CC(C)[C@@H](C(=O)O)N1Cc2ccc(-c3ccc(NC(=O)c4ncc(-c5ccccc5)o4)cc3)cc2C1=O [Example 614, (S)-3-Methyl-2-(1-oxo-6-(4-(5-phenyloxazole-2-carboxamido)phenyl)isoindolin-2-yl)butanoic acid]
10 to 50	O=C(Nc1ccc(-c2ccc3c(c2)CN([C@H](C(=O)O)c2ccccc2)C3=O)cc1)Nc1cccc(C(F)(F)F)c1 [Example 373, (S)-2-(1-Oxo-5-(4-(3-(3-(trifluoromethyl)phenyl)ureido)phenyl)isoindolin-2-yl)-2-phenylacetic acid]
10 to 50	CC(C)[C@@H](C(=O)O)N1Cc2ccc(-c3ccc(NC(=O)Nc4ccc5c(c4)CCC5)cc3C(F)(F)F)cc2C1=O [Example 420, (S)-2-(6-(4-(3-(2,3-Dihydro-1H-inden-5-yl)ureido)-2-(trifluoromethyl)phenyl)-1-oxoisoindolin-2-yl)-3-methylbutanoic acid]
> 50	CC(C)[C@@H](C(=O)O)N1Cc2ccc(-c3ccc(NC(=O)c4nc(-c5ccccc5)oc4C(F)(F)F)cn3)cc2C1=O [Example 657, (S)-3-Methyl-2-(1-oxo-6-(5-(2-phenyl-5-(trifluoromethyl)oxazole-4-carboxamido)pyridin-2-yl)isoindolin-2-yl)butanoic acid]
> 50	Cc1ccc(C(=O)Nc2ccc(-c3ccc4c(c3)C(=O)N(C3(C(=O)O)CCC3)C4)cc2)cc1 [Example 582, 1-(6-(4-(4-Methylbenzamido)phenyl)-1-oxoisoindolin-2-yl)cyclobutane carboxylic acid]
> 50	CCCCCc1ccc(C(=O)Nc2ccc(-c3ccc4c(c3)C(=O)N([C@H](C(=O)O)C(C)C)C4)cc2F)cc1 [Example 446, (S)-2-(6-(3-Fluoro-4-(4-pentylbenzamido)phenyl)-1-oxoisoindolin-2-yl)-3-methylbutanoic acid]

Second part, the compound before the results:

Structure (SMILES)	inhibition at 1 µM [%]
COc1ccc(S(=O)(=O)Nc2ccc(-c3ccc4c(c3)CN([C@H](C(=O)O)C(C)C)C4=O)cc2)cc1 [Example 297, (S)-2-(5-(4-(4-Methoxyphenylsulfonamido)phenyl)-1-oxoisoindolin-2-yl)-3-methylbutanoic acid]	10 to 50
COc1ccc(NC(=O)Nc2ccc(-c3ccc4c(c3)CN([C@H](C(=O)O)C(C)C)C4=O)cc2)cc1 [Example 249, (S)-2-(5-(4-(3-(4-Methoxyphenyl)ureido)phenyl)-1-oxoisoindolin-2-yl)-3-methylbutanoic acid]	> 50
Cc1cccc(NC(=O)Nc2ccc(-c3ccc4c(c3)CN([C@H](C(=O)O)C(C)C)C4=O)cc2)c1 [Example 243, (S)-3-Methyl-2-(1-oxo-5-(4-(3-m-tolylureido)phenyl)isoindolin-2-yl)butanoic acid]	> 50
CC(C)[C@@H](C(=O)O)N1Cc2cc(-c3ccc(NC(=S)Nc4ccccc4C(F)(F)F)cc3)ccc2C1=O [Example 271, (S)-3-Methyl-2-(1-oxo-5-(4-(3-(2-(trifluoromethyl)phenyl)thioureido)phenyl)isoindolin-2-yl)butanoic acid]	10 to 50
CC(C)[C@@H](C(=O)O)N1Cc2cc(-c3ccc(NC(=S)Nc4cccc(C(F)(F)F)c4)cc3)ccc2C1=O [Example 283, (S)-3-Methyl-2-(1-oxo-5-(4-(3-(3-(trifluoromethyl)phenyl)thioureido)phenyl)isoindolin-2-yl)butanoic acid]	> 50
CC(C)[C@@H](C(=O)O)N1Cc2cc(-c3ccc(NC(=O)c4ccc(C(F)(F)F)cc4)cc3)ccc2C1=O [Example 309, (S)-3-Methyl-2-(1-oxo-5-(4-(4-(trifluoromethyl)benzamido)phenyl)isoindolin-2-yl)butanoic acid]	10 to 50
CC(C)[C@@H](C(=O)O)N1Cc2ccc(-c3ccc(NC(=O)c4ccccc4C(F)(F)F)cc3)cc2C1=O [Example 200, (S)-3-Methyl-2-(1-oxo-6-(4-(2-(trifluoromethyl)benzamido)phenyl)isoindolin-2-yl)butanoic acid]	10 to 50
CC(C)[C@@H](C(=O)O)N1Cc2cc(-c3ccc(NC(=O)Nc4ccc(C(F)(F)F)cc4)cc3)ccc2C1=O [Example 245, (S)-3-Methyl-2-(1-oxo-5-(4-(3-(4-(trifluoromethyl)phenyl)ureido)phenyl)isoindolin-2-yl)butanoic acid]	> 50
COc1cccc(NC(=S)Nc2ccc(-c3ccc4c(c3)C(=O)N([C@H](C(=O)O)C(C)C)C4)cc2)c1 [Example 60, (S)-2-(6-(4-(3-(3-Methoxyphenyl)thioureido)phenyl)-1-oxoisoindolin-2-yl)-3-methylbutanoic acid]	> 50
CC(C)[C@@H](C(=O)O)N1Cc2ccc(-c3ccc(NC(=O)c4ccc(C5CCCCC5)cc4)cc3)cc2C1=O [Example 174, (S)-2-(6-(4-(4-Cyclohexylbenzamido)phenyl)-1-oxoisoindolin-2-yl)-3-methyl butanoic acid]	> 50
COc1ccc(NC(=S)Nc2ccc(-c3ccc4c(c3)C(=O)N([C@H](C(=O)O)C(C)C)C4)cc2)cc1 [Example 58, (S)-2-(6-(4-(3-(4-Methoxyphenyl)thioureido)phenyl)-1-oxoisoindolin-2-yl)-3-methylbutanoic acid]	> 50
COc1ccccc1NC(=S)Nc1ccc(-c2ccc3c(c2)C(=O)N([C@H](C(=O)O)C(C)C)C3)cc1 [Example 74, (S)-2-(6-(4-(3-(2-Methoxyphenyl)thioureido)phenyl)-1-oxoisoindolin-2-yl)-3-methylbutanoic acid]	10 to 50
CC(C)[C@@H](C(=O)O)N1Cc2ccc(-c3ccc(NC(=O)Nc4c(F)cccc4F)cc3)cc2C1=O [Example 20, (S)-2-(6-(4-(3-(2,6-Difluorophenyl)ureido)phenyl)-1-oxoisoindolin-2-yl)-3-methylbutanoic acid]	10 to 50
COc1ccc(C(=O)Nc2ccc(-c3ccc4c(c3)CN([C@H](C(=O)O)C(C)C)C4=O)cc2)cc1 [Example 311, (S)-2-(5-(4-(4-Methoxybenzamido)phenyl)-1-oxoisoindolin-2-yl)-3-methyl butanoic acid]	10 to 50
COc1ccc(OC)c(C(=O)Nc2ccc(-c3ccc4c(c3)C(=O)N([C@H](C(=O)O)C(C)C)C4)cc2)c1 [Example 180, (S)-2-(6-(4-(3,6-Dimethoxybenzamido)phenyl)-1-oxoisoindolin-2-yl)-3-methyl butanoic acid]	> 50
CC(C)[C@@H](C(=O)O)N1Cc2ccc(-c3ccc(NC(=O)c4ccc(F)c(F)c4)cc3)cc2C1=O [Example 140, (S)-2-(6-(4-(3,4-Difluorobenzamido)phenyl)-1-oxoisoindolin-2-yl)-3-methyl butanoic acid]	> 50
CC(C)[C@@H](C(=O)O)N1Cc2cc(-c3ccc(NS(=O)(=O)C4CCCCC4)cc3)ccc2C1=O [Example 303, (S)-2-(5-(4-(Cyclohexanesulfonamido)phenyl)-1-oxoisoindolin-2-yl)-3-methylbutanoic acid]	10 to 50
CCCCOc1ccc(C(=O)Nc2ccc(-c3ccc4c(c3)C(=O)N([C@H](C(=O)O)C(C)C)C4)cc2)cc1 [Example 136, (S)-2-(6-(4-(4-Butoxybenzamido)phenyl)-1-oxoisoindolin-2-yl)-3-methyl butanoic acid]	> 50
